Patent US20080269240A1, “Novel Adenine Compound” (priority 2005, published 2008)

Molecular target: T1, human TLR7 (Homo sapiens, UniProt Q9NYK1)
T1 construct: expressed in transfected cells; host or cells: HEK293 (hTLR7/seap-293)
T1 sequence (Q9NYK1 27-1049): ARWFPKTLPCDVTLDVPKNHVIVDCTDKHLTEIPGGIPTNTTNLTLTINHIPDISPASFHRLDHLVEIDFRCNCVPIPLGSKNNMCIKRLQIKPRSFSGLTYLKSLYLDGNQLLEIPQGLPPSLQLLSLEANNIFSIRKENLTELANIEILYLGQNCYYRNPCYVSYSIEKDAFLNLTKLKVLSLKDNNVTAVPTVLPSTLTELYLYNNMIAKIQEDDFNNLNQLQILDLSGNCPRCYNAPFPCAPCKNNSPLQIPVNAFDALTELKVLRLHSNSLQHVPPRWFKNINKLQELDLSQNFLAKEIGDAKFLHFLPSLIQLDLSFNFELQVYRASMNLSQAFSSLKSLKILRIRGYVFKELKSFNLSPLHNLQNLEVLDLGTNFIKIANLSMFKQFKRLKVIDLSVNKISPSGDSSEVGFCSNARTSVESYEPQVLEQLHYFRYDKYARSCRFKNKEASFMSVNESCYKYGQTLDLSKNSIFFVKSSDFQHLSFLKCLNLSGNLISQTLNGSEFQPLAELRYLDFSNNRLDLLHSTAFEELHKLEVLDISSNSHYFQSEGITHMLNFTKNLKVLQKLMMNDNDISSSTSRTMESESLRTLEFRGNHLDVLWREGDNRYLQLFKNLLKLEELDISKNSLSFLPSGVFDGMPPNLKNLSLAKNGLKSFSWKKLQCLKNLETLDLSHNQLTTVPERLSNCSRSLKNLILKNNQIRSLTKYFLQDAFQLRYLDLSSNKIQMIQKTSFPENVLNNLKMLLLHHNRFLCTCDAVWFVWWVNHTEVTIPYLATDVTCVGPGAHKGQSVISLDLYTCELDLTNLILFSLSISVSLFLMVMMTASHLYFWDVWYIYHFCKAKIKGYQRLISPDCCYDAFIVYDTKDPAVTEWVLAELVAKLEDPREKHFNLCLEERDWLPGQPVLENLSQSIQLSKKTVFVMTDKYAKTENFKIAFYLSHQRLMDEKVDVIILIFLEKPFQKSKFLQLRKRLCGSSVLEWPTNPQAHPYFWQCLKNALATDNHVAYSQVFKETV
Experiment: Human TLR7 reporter assay (NF-kB-SEAP) in HEK293 cells
Type: cell-based
Details: HEK293 cells stably introduced with human TLR7 plasmid and NF-kB-SEAP reporter plasmid; cultured 20 hours with compound (1 nM-10 μM); absorbance 405 nm; read-out: Human TLR7 binding activity (EC50)
Method: Human TLR7 Reporter Assay
HEK293 cells in which human TLR7 or rat TLR7 plasmid and reporter plasmid (NF-kB-SEAP) are stably introduced are dispersed in DMEM broth (10% FBS, 1% NEAA, 10 ug/mL blastocidin S HCl, 100 ug/mL Zeocin), and were seeded to 96 well plate per 90 μl/well (hTLR7/seap-293: 20000 cells/well, rTLR7/seap-293:25000 cells/well).
Test compound (DMSO stock solution (2 μl) was diluted with the broth (200 μl) by 100 times) was added to the seeded cells to a 96 well plate (10 μl/well) (final concentration; 1 nM-10 μM, common ratio). After stirring by tapping side of the plate, the cells were cultured in a CO2 incubator for 20 hours. A substrate (50 μl/well) for reporter assay (substrate for SEAP, pNPP) was added to cells stimulated by test sample. Ten minutes after adding the substrate, the reaction quenching solution (4N NaOH) was added by 50 μl/well to cease enzymatic reaction. Sealing a top seal A on the plate, the absorbance was measured by a micro plate reader (405 nm).

Structure (SMILES)	EC50 [nM]
CCCCOc1nc(N)c2[nH]c(=O)n(CCC3CCN(CCOc4cccc(CC(=O)OC)c4)CC3)c2n1 [Example 11, 2-Butoxy-7,8-dihydro-9-(1-{2-[3-(methoxycarbonylmethyl)phenoxy]ethyl}piperidin-4-ylethyl)-8-oxoadenine]	187
CCCCOc1nc(N)c2[nH]c(=O)n(CCCCN3CCC(Oc4cccc(CC(=O)OC)c4)CC3)c2n1 [Example 29]	713
CCCCOc1nc(N)c2[nH]c(=O)n(CCCCCN3CCN(CCN(C)Cc4cccc(CC(=O)OC)c4)CC3)c2n1 [Example 20, 2-Butoxy-7,8-dihydro-9-[5-(4-{2-[N-methyl-N-(3-methoxycarbonylmethyl)benzyl]aminomethyl}piperazin-1-yl)pentyl]-8-oxoadenine]	139
CCCCOc1nc(N)c2[nH]c(=O)n(CCCCCCCN3CCN(CCN(C)Cc4cccc(CC(=O)OC)c4)CC3)c2n1 [Example 21, 2-Butoxy-7,8-dihydro-9-[7-(4-{2-[N-methyl-N-(3-methoxycarbonylmethyl)benzyl]aminomethyl}piperazin-1-yl)heptyl]-8-oxoadenine]	449
CCCCOc1nc(N)c2[nH]c(=O)n(CCC3CCN(C(=O)CN(C)CCOc4cccc(CC(=O)OC)c4)CC3)c2n1 [Example 18, 2-Butoxy-7,8-dihydro-9-(2-{1-[(N-{2-[3-(methoxylcarbonylmethyl)phenoxy]ethyl)-N-methyl)aminocarbonylmethyl]piperidin-4-yl}ethyl)-8-oxoadenine]	281
CCCCOc1nc(N)c2[nH]c(=O)n(CC3CCN(C(=O)CN(C)CCOc4cc(CC(=O)OC)ccc4OC)CC3)c2n1 [Example 19, 2-Butoxy-7,8-dihydro-9-{1-[(N-{2-[2-methoxy-5-(methoxylcarbonylmethyl)phenoxy]ethyl}-N-methyl)aminomethylacarbonyl]piperidin-4-ylmethyl}-8-oxoadenine]	644
CCCCOc1nc(N)c2[nH]c(=O)n(CC3CCN(CCCN(C)Cc4cccc(CC(=O)OC)c4)CC3)c2n1 [Example 1, 2-Butoxy-7,8-dihydro-9-{[2-(3-{N-[(3-methoxycarbonylmethylphenyl-1-yl)methyl]-N-methylamino}propyl)piperidin-4-yl]methyl}-8-oxoadenine]	1620
CCCCOc1nc(N)c2[nH]c(=O)n(CC3CCN(CCCNCc4cccc(CC(=O)OC)c4)CC3)c2n1 [Example 2]	1860
CCCCOc1nc(N)c2[nH]c(=O)n(CCCCCCCN3CCN(CCOc4cccc(CC(=O)OC)c4)CC3)c2n1 [Example 23, 2-Butoxy-7,8-dihydro-9-(7-{4-[2-(3-methoxycarbonylmethylphenyloxy)ethyl]piperazin-1-yl}heptyl)-8-oxoadenine]	74.5
CCCCOc1nc(N)c2[nH]c(=O)n(CCC3CCN(CCCN(C)CCOc4cccc(CC(=O)OC)c4)CC3)c2n1 [Example 12, 2-Butoxy-7,8-dihydro-9-{1-[3-([N-methyl-N {2 [3-(methoxycarbonylmethyl)phenoxy]ethyl}]amino)propyl]piperidin-4-ylethyl}-8-oxoadenine]	579
CCCCOc1nc(N)c2[nH]c(=O)n(CCCCCN3CCN(CCOc4cccc(CC(=O)OC)c4)CC3)c2n1 [Example 22]	198
COCCOc1nc(N)c2[nH]c(=O)n(CC3CCN(CC(=O)N(C)CCOc4cccc(CC(=O)OC)c4)CC3)c2n1 [Example 17, 7,8-Dihydro-2-(2-methoxyethoxy)-9-{1-[(N-(2-[3-(methoxylcarbonylmethyl)phenoxy]ethyl}-N-methyl)aminocarbonylmethyl]piperidin-4-ylmethyl}-8-oxoadenine]	5620
